In PubChem BioAssay AID624344 (Sanford-Burnham Center for Chemical Genomics, 2012):
Active and inactive are the calls of the source. No rule for the calls is given here.

Experiments:
Cytotoxicity = assay: NFkB reporter suppression in cystic fibrosis bronchial cells – cell-based, uHTS hits, panel, cytotoxicity readout, dose response (AID 624344); settings: CF bronchial epithelial cells, mean of runs
[1] = as above; settings: CF bronchial epithelial cells, PAF-induced NFkB reporter inhibition; with PAF, mean of runs

Structure (SMILES)	IC50 (Cytotoxicity)	IC50 [1]
COc1ccc(/C=C/C(=O)c2cc(F)ccc2OC(=O)c2ccccc2C)cc1OC	62.5 µM (inactive)	inactive
CCCNC(=O)COC(=O)c1ccccc1C(=O)c1ccc(Cl)c([N+](=O)[O-])c1	7.71 µM	1.8 µM
CC1(C)Cc2c(ccc3ccccc23)C(=O)N1	> 79 µM (inactive)	3.27 µM
CCOc1ccc(C(C(=O)NC2CCCC2)N(C(=O)c2snc(C(N)=O)c2N)c2cccc(O)c2)cc1 (centres undefined)	7.27 µM	4.37 µM
CC(C)C[C@H](CO)Nc1nc(Nc2cccc(Cl)c2)c2ncn(C(C)C)c2n1	36.2 µM	5.12 µM
Cc1ccnc(NC(=O)CCCOc2cc(=O)n(C)c3ccccc23)c1	62.3 µM (inactive)	11.2 µM
COc1ccc(OC)c(-c2nnc3n2N=C(c2ccc(OC)c(OC4CCCC4)c2)CS3)c1	> 79 µM (inactive)	6.47 µM
Cc1ccc(C(=O)Nc2cccc(C(F)(F)F)c2)cc1NC(=O)c1ccno1	> 79 µM (inactive)	0.626 µM
C[C@H]1CCCC(=O)CCC/C=C/c2cc(O)cc(O)c2C(=O)O1	25.9 µM	14 µM
CNc1ccc2ncc(-c3ccc(OC)c(OC)c3)n2n1	15.8 µM	0.535 µM
CCCn1c(-c2nonc2N)nc2ccccc21	31.6 µM	4.28 µM
O=[N+]([O-])c1cccc(/C=N/Nc2cc(N3CCOCC3)ncn2)c1	19.1 µM	3.21 µM
O=C(Nc1ccc(F)cc1)Nc1ccc(N2CCCC2)c(S(=O)(=O)Nc2ccccc2Cl)c1	42.5 µM	7.2 µM
Cc1cc2cc(CCNC(=O)C(=O)c3c[nH]c4ccccc34)c(=O)[nH]c2cc1C	24.3 µM	5.72 µM
Nc1ncc([N+](=O)[O-])c(N2CCCCCC2)n1	> 79 µM (inactive)	2.28 µM
O=Nc1c(O)n(Cc2c(Cl)cccc2Cl)c2ccccc12	49.2 µM	5.45 µM
Cn1c(Sc2ccc(Cl)cc2)c(C=O)c2ccccc21	17.3 µM	2.48 µM
O=C1/C(=C/c2cccnc2)CCc2c1[nH]c1ccccc21	25.1 µM	5.47 µM
COc1cccc(NC(=O)CN(C)CC(=O)Nc2ccc(C)c([N+](=O)[O-])c2)c1	> 79 µM (inactive)	6.21 µM
CN(c1cccc(Cl)c1)S(=O)(=O)c1cccc(C(=O)Nc2nc3ccccc3[nH]2)c1	12.2 µM	6.19 µM
COc1ccc(OC)c(N(CCN2C(=O)c3ccccc3C2=O)C(=O)CCl)c1	4.33 µM	4.03 µM

Structure (SMILES)	IC50 (Cytotoxicity)	IC50 [1]
CCOC(=O)c1ccc(NC(=O)Nc2nncs2)cc1	64 µM (inactive)	9.39 µM
CCOC(=O)N1CCC(NC(=O)c2ccc3c(c2)N=C(C)c2c(C)ccc(C)c2S3)CC1	41.4 µM	11 µM
O=C(c1nnsc1S(=O)(=O)c1ccc(Cl)cc1)N1CCOCC1	9.67 µM	3.85 µM
O=C(O)/C=C/c1ccc2c(-c3ccccc3)onc2c1	4.73 µM	1.81 µM
Nc1nccc(SCc2ccc(Cl)cc2Cl)n1	> 79 µM (inactive)	14.3 µM
COc1cccc(NC(=O)Nc2nnc(CC(=O)NCc3ccccc3)s2)c1	52.3 µM (inactive)	5.09 µM
COc1ccc(-c2cc(-c3nc4ccccn4c3NCc3ccccc3)ccc2OC)cc1	5.51 µM	4.41 µM
CC(C)[C@H](CO)Nc1nc(NCc2ccc(S(N)(=O)=O)cc2)c2ncn(C(C)C)c2n1	11.9 µM	1.67 µM
Cc1nn(-c2ccccc2)c(N2CCCC2)c1/C=N/NC(=O)c1cc(-c2ccccc2)nc2ccccc12	58.7 µM (inactive)	5.62 µM
Cc1ncc(CO)c2c1Oc1nc(-c3ccccc3F)nc(SCC(=O)N(C)c3ccccc3)c1C2	11.3 µM	4.17 µM
C[C@H](CO)N1C[C@H](C)[C@@H](CN(C)C(=O)Nc2ccc3c(c2)OCO3)Oc2c(NC(=O)Nc3ccc(C(F)(F)F)cc3)cccc2C1=O	5.77 µM	3.05 µM
O=C(NNc1ccccc1Cl)C(O)(c1cccc(C(F)(F)F)c1)c1cccc(C(F)(F)F)c1	7.25 µM	13.3 µM
COc1ccc(-c2cc(=O)oc3c(C)c(O)ccc23)cc1	67.5 µM (inactive)	0.867 µM
COc1ccc(OC)c(-c2nnc3n2N=C(c2ccc(OC)c(OC4CCOC4)c2)CS3)c1 (centres undefined)	> 79 µM (inactive)	1.71 µM
Nc1nc(N)nc(-c2ccc(Cl)c(Cl)c2)n1	20.3 µM	2.78 µM
Cc1cc(C)c2nc(C(F)(F)F)c(C#N)c(N)c2c1	24.6 µM	0.827 µM
Cc1c(Cl)cccc1NC(=O)CSc1nc2ncc(Cl)cc2[nH]1	15.5 µM	10.6 µM
N#Cc1c(-c2ccc(Cl)cc2)n(O)c2ccccc12	3.98 µM	2.85 µM
Cc1ccc(-c2c(C#N)c(N)n3c(nc4ccccc43)c2C#N)cc1	5.34 µM	2.89 µM
CC(C)(C)c1nc(NC(=O)Nc2ccccc2)sc1Br	12.6 µM	6.59 µM
CC(=O)c1c(O)cc2c3c1OC(C)(C)C1CCC(C)(CC31)O2 (centres undefined)	53.5 µM (inactive)	2.73 µM
